# From patent US8043827B2, “Single molecule-format real-time bioluminescence imaging probe” (National Institute of Advanced Industrial Science and …, priority 2007, dated 2011)
# Where two headings read alike, the source gives them in different places.
# Assays:
# Format in all cases: cell-based
# [1] = target: T1, calmodulin (CaM) (Xenopus laevis, UniProt P0DP33); experiment: Ca^2+ concentration-dependent luminescence intensity in living cells transfected with pSica-5; conditions: for EC50: 2 μM ionomycin, PBS, read-out: 50% effective concentration (EC50) based on changes in luminescence intensities
# T1 construct: (CaM; 1-150 AA; GenBank/NM001087395); expressed in transfected cells; host or cells: COS-7 or HeLa cells, pSica-5 in pcDNA3.1(+)
# Procedure: PCR amplification was carried out to introduce KpnI and BamHI, which are restriction enzyme sites, into the two termini of a cDNA encoding calmodulin, which is a Xenopus laevis (African clawed frog)-derived Ca^2+ recognition protein (CaM; 1-150 AA; GenBank/NM001087395). On the other hand, as an optimal luminescent enzyme which can be linked to the CaM as a single-molecule-format probe, Gaussia princeps-derived luciferase (GLuc; 1-189 AA; GenBank/AY015993) was used. Five fragment pairs were generated by fragmentizing five sites of the cDNA of GLuc by PCR reaction, and were used in the examination of the optimal partition sites for GLuc (FIG. 3), which will be discussed in Example 2.
# (§1) pSica-5 was transfected into COS-7 cells or HeLa cells which have been cultured on a 24-well plate, using a transfection reagent (TransIT-LT1 (Mirus)). Then, the cells were cultured for 16 hours, and then the cell culture medium was exchanged with 200 μL of a PBS buffer solution supplemented with coeleterazine, which is the specific substrate, and 2 μM ionomycin. The values of luminescence change obtained thereafter were monitored by a luminescent plate reader (Mithras LB940; Berthold) (FIG. 7(A)). Four minutes after stabilization of the background luminescence, Ca^2+ was added to the cells on the wells at concentrations ranging from 10^−3.5 M to 10^−5.5 M. Thereafter, the changes in the luminescence values were immediately monitored by the above-mentioned luminescence plate reader. Changes in the luminescence values, which were dependent on the concentration of added Ca^2+, were monitored. Based on the values of luminescence fluctuations in this Ca^2+ concentration range, three kinds of calibration curves were produced with respect to the Ca^2+ concentration in the cultured cells.
# [2] = target: T2, GR LBD (human glucocorticoid receptor) (Homo sapiens, UniProt P04150); experiment: Ligand sensitivity of living cells transfected with pSimgr; conditions: steroid hormone sensitivity (FIG. 9(C))
# T2 construct: expressed in transfected cells
# T2 sequence (P04150 524-758 limits assumed): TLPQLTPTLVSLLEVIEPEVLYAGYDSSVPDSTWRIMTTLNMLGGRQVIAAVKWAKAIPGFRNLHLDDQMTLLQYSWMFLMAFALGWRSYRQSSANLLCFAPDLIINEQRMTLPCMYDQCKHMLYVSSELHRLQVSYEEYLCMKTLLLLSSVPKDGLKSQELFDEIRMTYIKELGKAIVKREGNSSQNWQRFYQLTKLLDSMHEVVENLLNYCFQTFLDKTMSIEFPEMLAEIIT
# Description: These plasmids were designated as pSimar and pSimgr, respectively.
# [3] = test system: ATP receptors present on the cell membrane of MCF-7 cells; experiment: Intracellular Ca^2+ level increased by ATP stimulation, MCF-7 cells transfected with pSica-5; conditions: 1 mM ATP; host cell MCF-7 transfected with pSica-5
# Procedure: as §1, with “cells. Variances in the luminescence intensity induced by the ATP concentration in COS-7, MCF-7 and HeLa cells, which had been respectively transfected with pSica-5, were measured (FIG. 7(B)). […]” for “cells.”
# [4] = test system: ATP receptor which is an endogenous membrane receptor of COS-7 cells; experiment: ATP concentration-dependent luminescence change in COS-7 cells carrying pSica-5
# Procedure: For example, an ATP receptor which is an endogenous membrane receptor of COS-7 cells, is stimulated by 100 mM ATP, to thereby increase the concentration of Ca^2+. CaM in the probe responds to the elevated Ca^2+ Level, and as a result, the luminescence intensity is reduced. This phenomenon depends on the ATP concentration;
# pSica-5 was transfected into COS-7 cells which have been cultured on a 24-well plate, using a transfection reagent (TransIT-LT1 (Mirus)). Then, the cells were cultured for 16 hours, and then the culture medium was exchanged with 200 μL of a mixed solution of a HBSS buffer (containing 1.3 mM Ca^2+) and the substrate. The values of luminescence change obtained thereafter were monitored by a luminescent plate reader (FIG. 5). After about 5 minutes, ATP was added at different concentrations, and changes in the luminescence values obtained thereafter were monitored. […] Meanwhile, no detectable change was recognized in the luminescence values for the buffer solution itself (phosphate buffer saline; PBS).
# [5] = test system: ATP receptors present on the cell membrane of COS-7 cells; experiment: Intracellular Ca^2+ level increased by ATP stimulation, COS-7 cells transfected with pSica-5; conditions: 1 mM ATP; host cell COS-7 transfected with pSica-5
# Procedure: as §1, with “cells. Variances in the luminescence intensity induced by the ATP concentration in COS-7, MCF-7 and HeLa cells, which had been respectively transfected with pSica-5, were measured (FIG. 7(B)). […]” for “cells.”
smiles,measurement,setting,value
[Ca+2] [Ca^2+],EC50,[1]; COS-7 cells transfected with pSica-5,25 µM
same,EC50,[1]; HeLa cells transfected with pSica-5,50 µM
same,dissociation coefficient (Kd) between CaM and Ca^2+,"[1]; HeLa cells, from the luminescence values",0.63×10^−17 M^4
C[C@]12CCC(=O)C=C1CC[C@@H]1[C@@H]2[C@@H](O)C[C@@]2(C)[C@H]1CC[C@]2(O)C(=O)CO [cortisol],sensitivity of cells transfected with pSimgr,[2],strong sensitivity
Nc1ncnc2c1ncn2[C@@H]1O[C@H](COP(=O)(O)OP(=O)(O)OP(=O)(O)O)[C@@H](O)[C@H]1O [ATP],Measured average of Ca^2+ concentrations (ave),[3],13 µM
same,changes in the luminescence values,"[4]; COS-7 cells with pSica-5, 1 mM, 100 μM and 10 μM ATP, HBSS buffer containing 1.3 mM Ca^2+",stimulant dose-dependent changes
same,luminescence intensity,"[4]; COS-7 cells, probe with GLuc dissected at site #5, 100 mM ATP (FIG. 5 legend)",reduced
same,Measured average of Ca^2+ concentrations (ave),[5],37.4 µM
